#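 Assay format: 96-well plates, 48-hour exposure. The concentration for 50% growth inhibition is given as GI50.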 Calls of active or inactive are those of the source. Cut-off read from the data, not from the text of the source: active = GI50 up to about 1.1 µM and inactive = higher.
# How the values were obtained:
# Assay in all cases: NCI-60 cell line screen, 48 h
# [1] = system: A549
# [2] = system: SK-MEL-2
# [3] = system: TK-10
# [4] = system: HOP-92
# [5] = system: SF-539
# [6] = system: ACHN
# [7] = system: OVCAR-4
# [8] = system: HOP-62
# [9] = system: XF498
# [10] = system: CCRF-CEM
# [11] = system: RXF 393
# [12] = system: U-251
# [13] = system: LOX IMVI
# [14] = system: UO-31
# [15] = system: A498
# [16] = system: PC-3
# [17] = system: MCF7
# [18] = system: Hs-578T
# [19] = system: T47D
# [20] = system: DU-145
Structure (SMILES),GI50 [1],GI50 [2],GI50 [3],GI50 [4],GI50 [5],GI50 [6],GI50 [7],GI50 [8],GI50 [9],GI50 [10],GI50 [11],GI50 [12],GI50 [13],GI50 [14],GI50 [15],GI50 [16],GI50 [17],GI50 [18],GI50 [19],GI50 [20]
c1coc(CNc2[nH]cnc3nncc2-3)c1,> 100 µM (inactive),> 100 µM (inactive),> 100 µM (inactive),35.8 µM (inactive),> 100 µM (inactive),> 100 µM (inactive),> 100 µM (inactive),> 100 µM (inactive),> 100 µM (inactive),> 100 µM (inactive),> 100 µM (inactive),> 100 µM (inactive),> 100 µM (inactive),70.3 µM (inactive),> 100 µM (inactive),–,–,–,–,–
COC(OC)c1cc2c(cc1C(=O)[C@@]13CCC[C@@H]1NC(=O)O3)OCO2,–,> 100 µM (inactive),> 100 µM (inactive),> 100 µM (inactive),> 100 µM (inactive),> 100 µM (inactive),> 100 µM (inactive),> 100 µM (inactive),84.5 µM (inactive),> 100 µM (inactive),52.2 µM (inactive),> 100 µM (inactive),–,60.3 µM (inactive),> 100 µM (inactive),–,–,–,–,–
Cn1nc2ccccc2cc1=O,> 100 µM (inactive),> 100 µM (inactive),> 100 µM (inactive),> 100 µM (inactive),> 100 µM (inactive),> 100 µM (inactive),> 100 µM (inactive),> 100 µM (inactive),> 100 µM (inactive),> 100 µM (inactive),–,> 100 µM (inactive),> 100 µM (inactive),> 100 µM (inactive),> 100 µM (inactive),–,–,–,–,–
COC(=O)N/N=C(\C)CC(=O)Nc1ccc(Cl)cc1,> 100 µM (inactive),> 100 µM (inactive),> 100 µM (inactive),> 100 µM (inactive),> 100 µM (inactive),–,–,> 100 µM (inactive),> 100 µM (inactive),> 100 µM (inactive),42.6 µM (inactive),> 100 µM (inactive),> 100 µM (inactive),67.3 µM (inactive),> 100 µM (inactive),–,–,–,–,–
Cc1cc2c(c3c1c1ccccc1n3C)C(=O)C=CC2=O,44.6 µM (inactive),21.6 µM (inactive),24.2 µM (inactive),12.9 µM (inactive),23.8 µM (inactive),21.3 µM (inactive),12 µM (inactive),44.1 µM (inactive),17.7 µM (inactive),0.631 µM (active),15.3 µM (inactive),19.3 µM (inactive),16.9 µM (inactive),16.1 µM (inactive),47.5 µM (inactive),16.9 µM (inactive),10.9 µM (inactive),24.8 µM (inactive),13 µM (inactive),58.9 µM (inactive)
CN1S(=O)(=O)N(C)P12(N=P(CP(=NP13(N(C)S(=O)(=O)N1C)N(C)S(=O)(=O)N3C)(c1ccccc1)c1ccccc1)(c1ccccc1)c1ccccc1)N(C)S(=O)(=O)N2C,> 100 µM (inactive),> 100 µM (inactive),> 100 µM (inactive),> 100 µM (inactive),> 100 µM (inactive),> 100 µM (inactive),–,> 100 µM (inactive),> 100 µM (inactive),> 100 µM (inactive),> 100 µM (inactive),> 100 µM (inactive),> 100 µM (inactive),> 100 µM (inactive),> 100 µM (inactive),–,–,–,–,–
COc1cccc(OC)c1/C=N\N1C(=O)c2ccccc2C1=O,> 100 µM (inactive),60.8 µM (inactive),57.7 µM (inactive),47.2 µM (inactive),24.3 µM (inactive),47.4 µM (inactive),49 µM (inactive),> 100 µM (inactive),28.6 µM (inactive),33.6 µM (inactive),26.7 µM (inactive),–,58.5 µM (inactive),55.2 µM (inactive),> 100 µM (inactive),–,–,–,–,–
CCn1c2ccccc2c(=O)c2c(OC)ccc(OC)c21,55.6 µM (inactive),75.5 µM (inactive),–,39 µM (inactive),68.1 µM (inactive),35.9 µM (inactive),31.3 µM (inactive),54.3 µM (inactive),34.1 µM (inactive),48 µM (inactive),32.5 µM (inactive),64.6 µM (inactive),36.1 µM (inactive),25.4 µM (inactive),25.4 µM (inactive),–,–,–,–,–
CC#CC1C(OC(=O)c2ccccc2)CCCC1(CI)N=[N+]=[N-] (stereo unspecified),58.6 µM (inactive),75 µM (inactive),> 100 µM (inactive),92.7 µM (inactive),> 100 µM (inactive),> 100 µM (inactive),60.1 µM (inactive),94 µM (inactive),20.1 µM (inactive),26.2 µM (inactive),52 µM (inactive),59.7 µM (inactive),–,56.5 µM (inactive),> 100 µM (inactive),–,–,–,–,–
N#CC1=C(c2ccccc2)NN(Cc2ccccc2)C(c2ccc(Cl)cc2)CC1=O (stereo unspecified),18.2 µM (inactive),25.8 µM (inactive),42.8 µM (inactive),16.3 µM (inactive),–,23.3 µM (inactive),20.9 µM (inactive),–,15 µM (inactive),7.89 µM (inactive),22.3 µM (inactive),17.3 µM (inactive),18 µM (inactive),–,24.8 µM (inactive),–,–,–,–,–
OC1(C23CC4CC(CC(C4)C2)C3)CSCC1(O)C12CC3CC(CC(C3)C1)C2 (stereo unspecified),> 100 µM (inactive),> 100 µM (inactive),> 100 µM (inactive),> 100 µM (inactive),> 100 µM (inactive),–,> 100 µM (inactive),> 100 µM (inactive),> 100 µM (inactive),> 10 µM (inactive),–,–,–,> 100 µM (inactive),–,–,–,–,–,–
CC1(C)COC2(OC1)C1=NS(=O)(=O)CC13CCC2C3(C)C (stereo unspecified),> 100 µM (inactive),> 100 µM (inactive),> 100 µM (inactive),> 100 µM (inactive),> 100 µM (inactive),> 100 µM (inactive),> 100 µM (inactive),> 100 µM (inactive),> 100 µM (inactive),> 100 µM (inactive),> 100 µM (inactive),> 100 µM (inactive),> 100 µM (inactive),> 100 µM (inactive),> 100 µM (inactive),–,–,–,–,–
CN(C)C(=Nc1nc(N(C)C)s[s+]1)N(C)C,> 100 µM (inactive),> 100 µM (inactive),> 100 µM (inactive),> 100 µM (inactive),> 100 µM (inactive),> 100 µM (inactive),> 100 µM (inactive),> 100 µM (inactive),> 100 µM (inactive),> 100 µM (inactive),> 100 µM (inactive),> 100 µM (inactive),–,> 100 µM (inactive),> 100 µM (inactive),–,–,–,–,–
CCCCCCCCCCCCNC1(C)CNCCCNCCNCCCNC1,1.76 µM (inactive),1.9 µM (inactive),1.7 µM (inactive),1.85 µM (inactive),1.87 µM (inactive),1.78 µM (inactive),2.07 µM (inactive),1.98 µM (inactive),1.93 µM (inactive),1.38 µM (inactive),1.56 µM (inactive),1.08 µM (active),1.84 µM (inactive),2.29 µM (inactive),–,–,–,–,–,–

# Source: ChEMBL document CHEMBL1201862, “PubChem BioAssay data set” (2004)
